Source: the CheMixHub viscosity set
Where “and” joins values, the source holds several entries; their conditions need not be identical. Equal values may be shown once.

Experiment: xn = mol fraction of the nth substance listed

O=[N+]([O-])[O-].[K+] + O
viscosity [mPa·s]
Details | x1 = 0.0009 | x1 = 0.0018 | x1 = 0.00893 | x1 = 0.0177 | x1 = 0.02 | x1 = 0.02631 | x1 = 0.03478 | x1 = 0.0431 | x1 = 0.05127
293.15 K, 101.3 kPa | 0.999 | 0.9967 | 0.9784 | 0.9678 | – | – | – | 0.9855 | 1.002
298.15 K, 101.3 kPa | – | 0.887 | 0.875 | – | – | – | 0.8802 | 0.8927 | 0.9095
303.15 K, 101.3 kPa | 0.7964 | 0.7957 | 0.7884 | 0.7866 | – | 0.791 | 0.8004 | 0.8138 | 0.8319
308.15 K, 101.3 kPa | 0.7193 | 0.7184 | 0.7156 | 0.7174 | – | 0.7235 | 0.7334 | – | 0.7636
318.15 K, 101.3 kPa | 0.5964 | 0.5967 | 0.5993 | 0.6038 | – | 0.6128 | – | 0.6376 | 0.6543
323.15 K, 101 kPa | – | – | – | – | 0.565 | – | – | – | –

OCC(F)(F)C(F)F + O
viscosity [mPa·s], 100 kPa
Details | x1 = 0.1237 | x1 = 0.2532 | x1 = 0.3747 | x1 = 0.5024 | x1 = 0.6133 | x1 = 0.7598 | x1 = 0.8707
298.15 K | 2.07 | 2.716 | 3.002 | 3.314 | 3.523 | 3.91 | 4.341
323.15 K | 1.032 | 1.34 | 1.478 | 1.59 | 1.678 | 1.807 | 1.961

[Na+].[OH-] + O
Details | viscosity
293.15 K, 101.33 kPa, x2 = 0.67 | 96.16 mPa·s
293.15 K, 101.33 kPa, x2 = 0.8 | 22.24 mPa·s
293.15 K, 101.33 kPa, x2 = 0.83 | 18.37 mPa·s
293.15 K, 101.33 kPa, x2 = 0.85 | 9.529 mPa·s
293.15 K, 101.33 kPa, x2 = 0.86 | 8.225 mPa·s
293.15 K, 101.33 kPa, x2 = 0.89 | 6.356 mPa·s
293.15 K, 101.33 kPa, x2 = 0.9 | 4.63 mPa·s
323.15 K, 101 kPa, x1 = 0.009 | 0.609 mPa·s
323.15 K, 101 kPa, x1 = 0.026 | 0.745 mPa·s
323.15 K, 101 kPa, x1 = 0.05 | 1.02 mPa·s
323.15 K, 101 kPa, x1 = 0.1 | 1.88 mPa·s and 3.28 mPa·s
323.15 K, 101 kPa, x1 = 0.18 | 5.04 mPa·s
323.15 K, 101 kPa, x1 = 0.22 | 7.88 mPa·s
323.15 K, 101 kPa, x1 = 0.3 | 10.9 mPa·s

[Li+].[O-][Cl+3]([O-])([O-])[O-] + O=S1(=O)CCCC1
101 kPa, x1 = 0.1
Details | viscosity
303.15 K | 28.58 mPa·s and 28.57 mPa·s
308.15 K | 24.56 mPa·s
313.15 K | 20.83 mPa·s
318.15 K | 18.28 mPa·s
323.15 K | 16.02 mPa·s
